From patent US11912699B2, “Tau-protein targeting compounds and associated” (Arvinas Operations, Inc., priority 2019, dated 2024)
Where a name gives a salt, the structure may show the parent alone.

target: T1, Tau P301L (Homo sapiens, UniProt P10636, P618L); assay: In vitro tau degradation assay in CHOK1 Tau P301L cells (sarkosyl insoluble tau, WES); type: cell-based; settings: CHO-K1; CHOK1 Tau P301L cells; remaining tau in sarkosyl insoluble pellet; 48 hours with test compound at 1 μM, doxycycline removed for last 24 hours; relative to DMSO doxycycline control; read-out: Tau Protein Degradation effect at 1 μM
T1 construct: expressed in transfected cells
T1 sequence (P10636 1-441 isoform P10636-8 P301L): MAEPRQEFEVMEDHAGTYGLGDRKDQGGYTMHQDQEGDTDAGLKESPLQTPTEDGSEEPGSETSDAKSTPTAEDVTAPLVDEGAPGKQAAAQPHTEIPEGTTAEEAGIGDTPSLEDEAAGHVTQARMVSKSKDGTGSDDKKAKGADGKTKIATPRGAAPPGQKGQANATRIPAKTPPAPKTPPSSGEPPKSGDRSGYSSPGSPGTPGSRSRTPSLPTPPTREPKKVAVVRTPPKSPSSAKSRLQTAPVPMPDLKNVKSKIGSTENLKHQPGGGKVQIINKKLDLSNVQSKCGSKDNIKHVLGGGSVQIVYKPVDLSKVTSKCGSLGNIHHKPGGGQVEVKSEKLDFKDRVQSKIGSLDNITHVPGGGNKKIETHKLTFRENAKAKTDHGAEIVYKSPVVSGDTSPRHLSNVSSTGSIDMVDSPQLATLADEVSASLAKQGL
How it was run: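 Sarkosyl-insoluble pellet tau, measured by WES capillary immunoassay (Tau1 antibody), was scored against DMSO doxycycline control as ≤50% or >50% remaining. Cells were CHOK1 clone D1 expressing Tau P301L under doxycycline (1 μg/ml), given 1 μM compound for 48 h with doxycycline withdrawn during the last 24 h.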

Structure (SMILES) | remaining activity at 1 µM [%]
COc1ccc2nc(/C=C/C=C/c3ccc(OCCOCCOc4ccc5c(c4)C(=O)N(C4CCC(=O)NC4=O)C5=O)nc3)sc2c1 (centres unmarked) [Compound 626, 2-(2,6-dioxopiperidin-3-yl)-5-(2-(2-((5-((1E,3E)-4-(6-methoxybenzo[d]thiazol-2-yl)buta-1,3-dien-1-yl)pyridin-2-yl)oxy)ethoxy)ethoxy) isoindoline-1,3-dione] | < 50
O=C1CCC(N2C(=O)c3cc(N4CCN(CCC5CCN(c6ncc(-c7ccc8c9cnccc9n(C(F)F)c8c7)cc6F)CC5)CC4)cc(C(F)F)c3C2=O)C(=O)N1 (centres unmarked) [Compound 641, 4-(difluoromethyl)-6-(4-(2-(1-(5-(5-(difluoromethyl)-5H-pyrido[4,3-b]indol-7-yl)-3-fluoropyridin-2-yl)piperidin-4-yl)ethyl)piperazin-1-yl)-2-(2,6-dioxopiperidin-3-yl)isoindoline-1,3-dione] | < 50
O=C1CCC(N2C(=O)c3ccc(N4CCN(CCC5CCN(Cc6ncc(-c7ccc8c9cnccc9n(C(F)F)c8c7)cc6F)CC5)CC4)cc3C2=O)C(=O)N1 (centres unmarked) [Compound 632, 5-(4-(2-(1-((5-(5-(difluoromethyl)-5H-pyrido[4,3-b]indol-7-yl)-3-fluoropyridin-2-yl)methyl)piperidin-4-yl)ethyl)piperazin-1-yl)-2-(2,6-dioxopiperidin-3-yl)isoindoline-1,3-dione] | < 50
CN(C)c1ccn2cc(-c3cnc(N4CCC(CCN5CCN(c6ccc7c(c6)C(=O)N(C6CCC(=O)NC6=O)C7=O)CC5)CC4)c(F)c3)nc2c1 (centres unmarked) [Compound 680, 5-(4-(2-(1-(5-(7-(dimethylamino)imidazo [1,2-a]pyridin-2-yl)-3-fluoropyridin-2-yl)piperidin-4-yl)ethyl)piperazin-1-yl)-2-(2,6-dioxopiperidin-3-yl)isoindoline-1,3-dione] | < 50
O=C1CCC(N2C(=O)c3cc(F)c(N4CCN(CC5CCN(c6ncc(-c7ccc8c9cnccc9n(C(F)F)c8c7)cc6F)CC5)CC4)cc3C2=O)C(=O)N1 (centres unmarked) [Compound 608, 5-(4-((1-(5-(5-(difluoromethyl)-5H-pyrido[4,3-b]indol-7-yl)-3-fluoropyridin-2-yl)piperidin-4-yl)methyl)piperazin-1-yl)-2-(2,6-dioxopiperidin-3-yl)-6-fluoroisoindoline-1,3-dione] | > 50
O=C1CCC(N2Cc3c(cccc3N3CCN(CCC4CCN(c5ncc(-c6ccc7c8cnccc8n(C(F)F)c7c6)cc5F)CC4)CC3)C2=O)C(=O)N1 (centres unmarked) [Compound 682, 3-(4-(4-(2-(1-(5-(5-(difluoromethyl)-5H-pyrido[4,3-b]indol-7-yl)-3-fluoropyridin-2-yl)piperidin-4-yl)ethyl)piperazin-1-yl)-1-oxoisoindolin-2-yl)piperidine-2,6-dione] | < 50
COc1cc(N2CCN(CCC3CCN(c4ncc(-c5ccc6c7cnccc7n(C(F)F)c6c5)cc4F)CC3)CC2)cc2c1C(=O)N(C1CCC(=O)NC1=O)C2=O (centres unmarked) [Compound 635, 6-(4-(2-(1-(5-(5-(difluoromethyl)-5H-pyrido[4,3-b]indol-7-yl)-3-fluoropyridin-2-yl)piperidin-4-yl)ethyl)piperazin-1-yl)-2-(2,6-dioxopiperidin-3-yl)-4-methoxyisoindoline-1,3-dione] | < 50

same assay, conditions: CHO-K1; remaining tau protein in sarkosyl insoluble pellet; CHOK1 Tau P301L cells treated 48 hours with test compound at 1 μM, doxycycline removed for the last 24 hours; relative to DMSO doxycycline control; read-out: Tau Protein Degradation effect at 1 μM

Structure (SMILES) | remaining activity at 1 µM [%]
Cc1ccc(-n2ccc3cc(N4CCC(CCN5CCN(c6ccc7c(c6)C(=O)N(C6CCC(=O)NC6=O)C7=O)CC5)CC4)ncc32)nc1 (centres unmarked) [Compound 555, 2-(2,6-dioxopiperidin-3-yl)-5-(4-(2-(1-(1-(5-methylpyridin-2-yl)-1H-pyrrolo[2,3-c]pyridin-5-yl)piperidin-4-yl)ethyl)piperazin-1-yl)isoindoline-1,3-dione] | < 50
Cc1ncsc1-c1ccc([C@H](C)NC(=O)[C@@H]2C[C@@H](O)CN2C(=O)[C@H](c2cc(OCCCCCN3CCC(O[C@H]4C[C@H](Oc5ccc(-c6ccc7c8cnccc8n(C)c7c6)cn5)C4)CC3)no2)C(C)C)cc1 [Compound 378, (2S,4R)-4-hydroxy-1-((S)-3-methyl-2-(3-((5-(4-((1r,3r)-3-((5-(5-methyl-5H-pyrido[4,3-b]indol-7-yl)pyridin-2-yl)oxy)cyclobutoxy)piperidin-1-yl)pentyl)oxy)isoxazol-5-yl)butanoyl)-N-((S)-1-(4-(4-methylthiazol-5-yl)phenyl)ethyl) pyrrolidine-2-carboxamide] | > 50
Cc1ccc(-c2cn3ccc(N4CCC(CCN5CCN(c6ccc7c(c6)C(=O)N(C6CCC(=O)NC6=O)C7=O)CC5)CC4)cc3n2)cc1 (centres unmarked) [Compound 558, 2-(2,6-dioxopiperidin-3-yl)-5-(4-(2-(1-(2-(p-tolyl)imidazo[1,2-a]pyridin-7-yl)piperidin-4-yl)ethyl)piperazin-1-yl)isoindoline-1,3-dione] | < 50
O=C1CCC(N2C(=O)c3ccc(N4CCN(CCC5CCN(c6ncc(-c7ccc8c9cc(F)cnc9n(C(F)F)c8c7)cc6F)CC5)CC4)cc3C2=O)C(=O)N1 (centres unmarked) [Compound 597, 5-(4-(2-(1-(5-(9-(difluoromethyl)-3-fluoro-9H-pyrido[2,3-b]indol-7-yl)-3-fluoropyridin-2-yl)piperidin-4-yl)ethyl)piperazin-1-yl)-2-(2,6-dioxopiperidin-3-yl)isoindoline-1,3-dione] | < 50
Cn1c2ccncc2c2ccc(C#CC3CCN(CCN4CCN(c5ccc6c(c5)C(=O)N(C5CCC(=O)NC5=O)C6=O)CC4)CC3)cc21 (centres unmarked) [Compound 533, 2-(2,6-dioxopiperidin-3-yl)-5-(4-(2-(4-((5-methyl-5H-pyrido[4,3-b]indol-7-yl)ethynyl)piperidin-1-yl)ethyl)piperazin-1-yl)isoindoline-1,3-dione] | < 50
O=C1CCC(N2C(=O)c3ccc(N4CCN(CCC5CCN(c6ccnc(Nc7ccc8ncccc8n7)c6)CC5)CC4)cc3C2=O)C(=O)N1 (centres unmarked) [Compound 656, 5-(4-(2-(1-(2-((1,5-naphthyridin-2-yl)amino)pyridin-4-yl)piperidin-4-yl)ethyl)piperazin-1-yl)-2-(2,6-dioxopiperidin-3-yl)isoindoline-1,3-dione] | < 50
Cc1ncsc1-c1ccc([C@H](C)NC(=O)[C@@H]2C[C@@H](O)CN2C(=O)[C@@H](c2cc(OCCCCCN3CCC(O[C@H]4C[C@H](Oc5ccc(-c6ccc7c8cnccc8n(C)c7c6)cn5)C4)CC3)no2)C(C)C)cc1 [Compound 379, (2S,4R)-4-hydroxy-1-((R)-3-methyl-2-(3-((5-(4-((1r,3r)-3-((5-(5-methyl-5H-pyrido[4,3-b]indol-7-yl)pyridin-2-yl)oxy)cyclobutoxy)piperidin-1-yl)pentyl)oxy)isoxazol-5-yl)butanoyl)-N-((S)-1-(4-(4-methylthiazol-5-yl)phenyl)ethyl) pyrrolidine-2-carboxamide] | > 50
O=C1CCC(N2C(=O)c3ccc(N4CCN(CC5CCN(c6ncc(-c7ccc8c9cnccc9n(C(F)F)c8c7)cc6C(F)(F)F)CC5)CC4)cc3C2=O)C(=O)N1 (centres unmarked) [Compound 494, 5-(4-((1-(5-(5-(difluoromethyl)-5H-pyrido[4,3-b]indol-7-yl)-3-(trifluoromethyl)pyridin-2-yl)piperidin-4-yl)methyl)piperazin-1-yl)-2-(2,6-dioxopiperidin-3-yl)isoindoline-1,3-dione] | < 50
CN(C)c1cccc2cnc(-n3ccc4cc(N5CCC(CCN6CCN(c7ccc8c(c7)C(=O)N(C7CCC(=O)NC7=O)C8=O)CC6)CC5)ncc43)cc12 (centres unmarked) [Compound 512, 5-(4-(2-(1-(1-(5-(dimethylamino)iso-quinolin-3-yl)-1H-pyrrolo[2,3-c]pyridin-5-yl)piperidin-4-yl)ethyl)piperazin-1-yl)-2-(2,6-dioxopiperidin-3-yl)isoindoline-1,3-dione] | < 50
O=C1CCC(N2C(=O)c3ccc(N4CCN(CC#CC5CCN(c6ccc7c8cnccc8n(C(F)F)c7c6)CC5)CC4)cc3C2=O)C(=O)N1 (centres unmarked) [Compound 565, formate] | < 50
O=C1CCC(N2C(=O)c3ccc(OCCN4CCC(OC5CN(c6ncc(-c7ccn8c(n7)nc7ccccc78)cc6C(F)(F)F)C5)CC4)cc3C2=O)C(=O)N1 (centres unmarked) [Compound 483, 5-(2-(4-((1-(5-(benzo[4,5]imidazo[1,2-a]pyrimidin-2-yl)-3-(trifluoromethyl)pyridin-2-yl)azetidin-3-yl)oxy)piperidin-1-yl)ethoxy)-2-(2,6-dioxopiperidin-3-yl)isoindoline-1,3-dione] | > 50
Cc1ncsc1-c1ccc([C@H](C)NC(=O)[C@@H]2C[C@@H](O)CN2C(=O)[C@@H](c2cc(OCCN3CCN(CCN4CCC(O[C@H]5C[C@H](Oc6ccc(-c7ccc8c9cnccc9n(C)c8c7)cn6)C5)CC4)CC3)no2)C(C)C)cc1 [Compound 372, (2S,4R)-4-hydroxy-1-((R)-3-methyl-2-(3-(2-(4-(2-(4-((1r,3r)-3-((5-(5-methyl-5H-pyrido[4,3-b]indol-7-yl)pyridin-2-yl)oxy)cyclobutoxy)piperidin-1-yl)ethyl)piperazin-1-yl)ethoxy)isoxazol-5-yl)butanoyl)-N-((S)-1-(4-(4-methylthiazol-5-yl)phenyl)ethyl) pyrrolidine-2-carboxamide] | > 50
Cn1c2ccncc2c2ccc(-c3ccc(OC4CC5(C4)CN(C(=O)CN4CCC(OC6CN(c7ccc8c(c7)C(=O)N(C7CCC(=O)NC7=O)C8=O)C6)CC4)C5)nc3)cc21 (centres unmarked) [Compound 462, 2-(2,6-dioxopiperidin-3-yl)-5-(3-((1-(2-(6-((5-(5-methyl-5H-pyrido[4,3-b]indol-7-yl)pyridin-2-yl)oxy)-2-azaspiro[3.3]heptan-2-yl)-2-oxoethyl)piperidin-4-yl)oxy)azetidin-1-yl)isoindoline-1,3-dione] | > 50
